In US4138492A, “Aromatic amides of heterocyclic compounds and therapeutic compositions containing same” (priority 1974, dated 1979):

Key:
[1] = system: apomorphine-induced gnawing; assay: Antiapomorphine activity (apomorphine-induced gnawing) in the rat; type: in vivo
Description: A number of the compounds of the present invention were screened in parallel with metoclopramide for potential anti-emetic effects against apomorphine-induced gnawing in the rat and as local anaesthetics on the rat sciatic nerve (Table I).
*Antiapomorphine activity in rat scored as […]

gastric emptying = assay: Decrease of gastric emptying time in rats; type: in vivo, rat; details: compared with metoclopramide
[2] = system: apomorphine-induced vomiting; assay: Apomorphine-induced vomiting in the dog; type: in vivo
[3] = Local anaesthetic activity in mice; type: in vivo; details: compared with metoclopramide or procaine
[4] = system: electrically induced convulsions; assay: Electrically induced convulsions in mice; type: in vivo; details: mouse, in vivo
[5] = system: convulsions induced by leptazol; assay: Leptazol-induced convulsions in the mouse; type: in vivo
[6] = system: cardiovascular and respiratory systems; assay: Cardiovascular and respiratory effects in cats anaesthetized with chloralose; type: in vivo
Description: HCl-Clebopride salt has weak effects on the cardiovascular and respiratory systems.

autonomic nervous system = assay: Effect on the autonomic nervous system; details: in vivo
inflammation = assay: Anti-inflammatory activity; details: in vivo
parasympathetic system = assay: Parasympatholytic activity; details: in vivo
[7] = Metabolism and pharmacokinetics in the rat; type: in vivo
[8] = Metabolism and pharmacokinetics in the rabbit; type: in vivo
[9] = Therapeutic effect and side effects in humans; type: in vivo; details: suitable doses
Procedure: They may be used in doses of from 0.1 to 1000 mg per day for the treatment of nausea and vomiting due to gastrointestinal disorders, congestive heart failure, post operative conditions, etc., other gastrointestinal tract disorders such as dyspepsia, flatulence, bile regurgitations, hiatus hernia, peptic ulcer, reflux aerophagitis, gastritis, duodenitis and cholethiasis, and as an adjunt to radiography of the gastrointestinal tract and for overcoming gastrointestinal stasis for diagnostic or therapeutic purposes and a variety of conditions affecting the central nervous system such as acute and chronic psychoses, maniacal psychosis, schizophrenias, serious disturbances of behavior and non-melancholic depressive state and migraine.
A number of the instant compounds, particularly the hydrogen chloride, malate and methanesulfonate salts of Clebopride have been extensively tested in humans to determine maximum dosages and the therapeutic effects of the compounds. These compounds have been administered to humans orally and parenterally.
Dosages of between 0.1 and 30 mg per day have been shown useful depending upon the length of treatment and therapeutic effect desired.

[10] = system: spontaneous motor activity; assay: Spontaneous motor activity in the mouse
incoordination = assay: Incoordination on accelerating rota-rod in the mouse
[11] = cats, slow intravenous infusion 1 mg/kg/min. to total 10 mg/kg

In the case of `COc1cc(N)c(Cl)cc1C(=O)NC1CCN(Cc2ccccc2)CC1` [Compound 2, N-[4'-(1'-benzyl)-piperidyl]-2-methoxy-4-amino-5-chloro-benzamide], the ED50 ([1]; Rattus norvegicus, po, per os, Table I, read-out: ED50 Values) was about 3 mg/kg, the “activity as an anti-emetic” value ([1]; compared with metoclopramide, from Table I) was “more active as an anti-emetic” and the “ability to decrease gastric emptying time, potency” value (gastric emptying) was “potency similar to that of metoclopramide”. For the same molecule, the “activity against apomorphine-induced vomiting” value [2] was “high activity”, the ED50 ([2]; Canis lupus familiaris, po, per os, Table II, read-out: ED50 (95% confidence limits), apomorphine induced vomiting) was 0.0435 mg/kg and the “potency relative to metoclopramide” value ([2]; oral route) was “approximately 8 times”. For the same molecule, the local anaesthetic potency [3] was “somewhat greater than that of either metoclopramide or procaine”, the anti-convulsant activity [4] was “has anti-convulsant activity” and the “inhibition of clonic seizures induced by leptazol” value [5] was “apparently not clonic seizures”. For the same molecule, the “inhibition of tonic convulsions (antileptazol)” value [5] was “inhibits tonic convulsions”, the blood pressure [6, 11] was “slight fall” and the heart rate [6, 11] was “slight fall”. For the same molecule, the respiratory movements [6, 11] was “slowing of respiratory movements”, the “effects on the cardiovascular and respiratory systems” value ([6]; in vivo) was “weak effects” and the “effect on the autonomic nervous system” value (autonomic nervous system) was “does not have an appreciable effect”. For the same molecule, the anti-inflammatory activity (inflammation) was “weak anti-inflammatory activity”, the parasympatholytic activity (parasympathetic system) was “no appreciable parasympatholytic activity” and the N-Debenzylation [7] was “major metabolic reaction”. For the same molecule, the “cleavage of the amide bond” value [7] was “does not appear to be a major matabolic reaction”, the extent of metabolism [7] was “extensively metabolized” and the “unchanged drug excreted in the urine” value [7] was “Only very little”. For the same molecule, the N-Debenzylation [8] was “major metabolic reaction”, the “cleavage of the amide bond” value [8] was “does not appear to be a major matabolic reaction” and the “conjugation with glucuronic acid and/or sulphate” value [8] was “occurs at a large extent in the rabbit”. For the same molecule, the extent of metabolism [8] was “extensively metabolized”, the “unchanged drug excreted in the urine” value [8] was “Only very little” and the side effects [9] was “virtually free of side effects”. For the same molecule, the spontaneous motor activity [10] was “inhibit spontaneous motor activity” and the incoordination (incoordination) was “cause incoordination”.
